Results published in ChEMBL document CHEMBL1201862, “PubChem BioAssay data set” (2004).
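Following 48 hours of exposure in 96-well plates, responses at five concentrations were used to interpolate endpoints linearly. GI50 marks 50% less growth.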 The source made the active and inactive calls. Rule as the data show it: active = GI50 up to about 1.1 µM and inactive = higher.

Columns and labels:
Assay in all cases: inhibition of tumour cell growth, NCI panel, 48 h
[1] = tested on: A549
[2] = tested on: HOP-62
[3] = tested on: HOP-92
[4] = tested on: Hs-578T
[5] = tested on: IGROV-1
[6] = tested on: M14
[7] = tested on: MDA-MB-231
[8] = tested on: MDA-MB-435
[9] = tested on: NCI-H23
[10] = tested on: NCI-H460
[11] = tested on: OVCAR-3
[12] = tested on: OVCAR-8
[13] = tested on: RPMI-8226
[14] = tested on: SF-295
[15] = tested on: SF-539
[16] = tested on: SK-MEL-2
[17] = tested on: SR
[18] = tested on: TK-10
[19] = tested on: U-251
[20] = tested on: SNB-19

Measured: GI50

O=C1CC(=O)NC(NN2C(=O)CSC2c2ccccc2)=N1 (stereo unspecified)
inactive: [1] > 100 µM | [2] > 100 µM | [3] 55.8 µM | [4] > 100 µM | [5] > 100 µM | [6] > 100 µM | [7] > 100 µM | [8] > 100 µM | [9] > 100 µM | [10] > 100 µM | [11] > 100 µM | [12] > 100 µM | [13] > 100 µM | [14] > 100 µM | [15] > 100 µM | [16] > 100 µM | [17] > 100 µM | [18] > 100 µM | [19] > 100 µM

O=C1CCCCC/C1=C\c1cccc(Cl)c1
inactive: [1] 63.2 µM | [2] > 100 µM | [3] 35.6 µM | [4] 35.9 µM | [5] 46.2 µM | [6] 32.4 µM | [7] > 100 µM | [8] 31 µM | [9] 42.9 µM | [10] 29.6 µM | [11] 71.3 µM | [13] 20 µM | [14] 20 µM | [16] 46.5 µM | [20] > 100 µM | [17] 20.4 µM | [19] 47.2 µM

CC1=C(C)SC(=C2Sc3[n-]c(=O)[nH]c(=O)c3S2)S1.CCCC[N+](CCCC)(CCCC)CCCC
inactive: [1] > 100 µM | [2] > 100 µM | [3] > 100 µM | [4] > 100 µM | [5] > 100 µM | [6] 31.3 µM | [7] > 100 µM | [8] 31.6 µM | [9] > 100 µM | [10] > 100 µM | [11] 46.1 µM | [12] 49.4 µM | [13] > 100 µM | [14] > 100 µM | [15] 44.5 µM | [20] 73.1 µM | [17] 35.9 µM | [18] > 100 µM | [19] > 100 µM

O=C1Nc2ccccc2C1S(=O)(=O)c1ccccc1 (stereo unspecified)
inactive: [1] > 100 µM | [2] > 100 µM | [3] > 100 µM | [4] > 100 µM | [5] > 100 µM | [6] > 100 µM | [7] > 100 µM | [8] > 100 µM | [9] > 100 µM | [10] > 100 µM | [11] > 100 µM | [12] > 100 µM | [13] > 100 µM | [14] > 100 µM | [16] > 100 µM | [20] > 100 µM | [17] > 100 µM | [18] > 100 µM | [19] > 100 µM

Cc1cccc(-c2nc3ccc([N+](=O)[O-])cc3c(=O)o2)c1
inactive: [1] 73.3 µM | [2] 46.1 µM | [3] 16 µM | [4] 22 µM | [5] > 100 µM | [7] > 100 µM | [8] 89.7 µM | [9] 72.8 µM | [10] 51.8 µM | [11] 47.9 µM | [12] 46.7 µM | [13] 45.6 µM | [14] 36.1 µM | [15] 27.9 µM | [16] 91.2 µM | [17] 28.8 µM | [18] 59.3 µM | [19] 44.4 µM

C/C(=N/OC(=O)c1cccc2c(=O)c3ccccc3[nH]c12)[C@H]1CC[C@H]2[C@@H]3CCC4=C/C(=N/OC(=O)c5cccc6c(=O)c7ccccc7[nH]c56)CC[C@]4(C)[C@H]3CC[C@]12C
inactive: [1] 25.6 µM | [2] 24.8 µM | [3] 21.3 µM | [4] 27.7 µM | [5] 14.4 µM | [6] 14.6 µM | [7] 14.3 µM | [8] 15.5 µM | [9] 15.5 µM | [11] 17.1 µM | [12] 15.7 µM | [13] 2.9 µM | [14] 16.8 µM | [15] 15.1 µM | [16] 12.8 µM | [20] 18.2 µM | [17] 3.61 µM | [18] 17.8 µM | [19] 15.8 µM

CCOc1cc(C2SCC(=O)N2c2ccc3c(c2)Oc2c(Cl)c4c(c(Cl)c2=N3)Oc2cc(N3C(=O)CSC3c3ccc(O)c(OCC)c3)ccc2N=4)ccc1O (stereo unspecified)
inactive: [1] 23.8 µM | [2] 31.6 µM | [3] 24.5 µM | [4] 73.5 µM | [5] 41.9 µM | [6] 27.2 µM | [7] 34.1 µM | [8] 35.1 µM | [9] 21 µM | [10] 30.6 µM | [11] 26.3 µM | [12] 32.7 µM | [13] 31.8 µM | [14] 38.9 µM | [15] 14.9 µM | [16] 27.5 µM | [17] 2.08 µM | [18] 41.7 µM | [19] 21 µM

CCc1nc2c(n1CC)C(=O)c1ccccc1C2=O
inactive: [1] 43.2 µM | [2] 42.5 µM | [3] 63.2 µM | [4] 67.6 µM | [5] 24.5 µM | [6] 23.7 µM | [7] 16.9 µM | [8] 18.3 µM | [9] 46.8 µM | [10] 39.1 µM | [11] 18.7 µM | [12] 32.8 µM | [13] > 100 µM | [14] 48.1 µM | [15] 44.4 µM | [20] 45.6 µM | [17] 37.4 µM | [18] 22.1 µM | [19] 44.2 µM

CC(C)(C)OC(=O)N[C@H]1CCN(C2CCCCC2)C1=O
inactive: [1] > 100 µM | [2] > 100 µM | [3] > 100 µM | [4] > 100 µM | [5] > 100 µM | [6] > 100 µM | [7] > 100 µM | [8] > 100 µM | [9] > 100 µM | [10] > 100 µM | [12] > 100 µM | [13] > 100 µM | [15] > 100 µM | [16] > 100 µM | [20] > 100 µM | [17] > 10 µM | [18] > 100 µM | [19] > 100 µM

COc1ccc(/C=C/c2cnc3ccccc3n2)cc1OC
inactive: [1] 42.6 µM | [2] 68.1 µM | [3] 94.8 µM | [4] 89.3 µM | [5] > 100 µM | [6] 75.7 µM | [7] 99.8 µM | [8] 44.1 µM | [9] 67.8 µM | [10] 30.3 µM | [11] 93.1 µM | [12] 41.7 µM | [13] 71.6 µM | [14] 52.8 µM | [15] > 100 µM | [16] 92.7 µM | [17] > 100 µM | [18] > 100 µM | [19] 80.2 µM
